# Assay results published in patent publication US10450347B2, “Immunomodulators” (BRISTOL-MYERS SQUIBB COMPANY, priority 2015, dated 2019).
# Starred links: 1 amine or outer side, 2 acyl side, 3 side chain; linkers in the order of their positions; H or OH if unused. Positions of bridges follow the written chain, without caps; N, C: chain ends. Non-standard residues stand in square brackets, D forms with d. Residues, ends and D or L forms follow the SMILES beside them. Tyrψ(CN4)Ala = C[C@@H](C(=O)[*:2])n1nnnc1[C@H](Cc1ccc(O)cc1)N[*:1]; X2 = O=C(Cn1nnnc1C1(N[*:1])CCCCC1)[*:2]; Bta = N[C@@H](Cc1csc2ccccc12)C(=O)O; Hyp = O=C(O)[C@@H]1C[C@@H](O)CN1; NMeF = CN[C@@H](Cc1ccccc1)C(=O)O; NMeNle = CCCC[C@H](NC)C(=O)O; Sar = CNCC(=O)O
# Assays:
# PD-1-Ig/PD-L1-His = target: T1, PD-1-Ig/PD-L1-His (Homo sapiens, UniProt Q9NZQ7); assay: PD-1/PD-L1 Homogenous Time-Resolved Fluorescence (HTRF) binding assay; details: inhibition of PD-1-Ig binding to PD-L1-TVMV-His
# T1 construct: [hPD-L1(19-239)-tobacco vein mottling virus protease cleavage site (TVMV)-His]; made in house; host or cells: HEK293T cells
# T1 sequence (Q9NZQ7 with tags, fused parts or gaps): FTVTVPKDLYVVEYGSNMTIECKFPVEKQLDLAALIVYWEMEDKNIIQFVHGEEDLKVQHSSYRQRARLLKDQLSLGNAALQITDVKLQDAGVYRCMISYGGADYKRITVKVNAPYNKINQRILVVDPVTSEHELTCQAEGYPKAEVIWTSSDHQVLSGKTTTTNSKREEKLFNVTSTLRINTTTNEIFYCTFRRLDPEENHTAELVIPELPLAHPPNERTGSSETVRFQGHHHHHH
# Excerpt: The ability of the macrocyclic peptides of the present disclosure to bind to PD-L1 was investigated using a PD-1/PD-L1 Homogenous Time-Resolved Fluorescence (HTRF) binding assay.
# Homogenous Time-Resolved Fluorescence (HTRF) Assays of Binding of Soluble PD-1 to Soluble PD-L1. Soluble PD-1 and soluble PD-L1 refers to proteins with carboxyl-end truncations that remove the transmembrane-spanning regions and are fused to heterologous sequences, specifically the Fc portion of the human immunoglobuling G sequence (Ig) or the hexahistidine epitope tag (SEQ ID NO: 3) (His). All binding studies were performed in an HTRF assay buffer consisting of dPBS supplemented with 0.1% (w/v) bovine serum albumin and 0.05% (v/v) Tween-20. For the PD-1-Ig/PD-L1-His binding assay, inhibitors were pre-incubated with PD-L1-His (10 nM final) for 15 m in 4 μl of assay buffer, followed by addition of PD-1-Ig (20 nM final) in 1 μl of assay buffer and further incubation for 15 m. PD-L1 fusion proteins from either human, cynomologous macaques, mouse, or other species were used. HTRF detection was achieved using europium crypate-labeled anti-Ig monoclonal antibody (1 nM final) and allophycocyanin (APC) labeled anti-His monoclonal antibody (20 nM final). Antibodies were diluted in HTRF detection buffer and 5 μl was dispensed on top of binding reaction. The reaction was allowed to equilibrate for 30 minutes and signal (665 nm/620 nm ratio) was obtained using an EnVision fluorometer. Additional binding assays were established between PD-1-Ig/PD-L2-His (20 and 5 nM, respectively), CD80-His/PD-L1-Ig (100 and 10 nM, respectively) and CD80-His/CTLA4-Ig (10 and 5 nM, respectively). Binding/competition studies between biotinylated Compound No. 71 and human PD-L1-His were performed as follows. Macrocyclic peptide inhibitors were pre-incubated with PD-L1-His (10 nM final) for 60 minutes in 4 μl of assay buffer followed by addition of biotinylated Compound No. 71 (0.5 nM final) in 1 μl of assay buffer. Binding was allowed to equilibrate for 30 minutes followed by addition of europium crypated labeled Streptavidin (2.5 pM final) and APC-labeled anti-His (20 nM final) in 5 μl of HTRF buffer. The reaction was allowed to equilibrate for 30 m and signal (665 nm/620 nm ratio) was obtained using an EnVision fluorometer.
# Recombinant Proteins. Carboxyl-truncated human PD-1 (amino acids 25-167) with a C-terminal human Ig epitope tag [hPD-1 (25-167)-3S-IG] and human PD-L1 (amino acids 18-239) with a C-terminal His epitope tag [hPD-L1(19-239)-tobacco vein mottling virus protease cleavage site (TVMV)-His] were expressed in HEK293T cells and purified sequentially by recombinant Protein A affinity chromatography and size exclusion chromatography. Human PD-L2-His (Sino Biologicals), CD80-His (Sino Biologicals), CTLA4-Ig (RnD Systems) were all obtained through commercial sources.
# [1] = oral administration, extensive first-pass metabolism in the liver; cited from earlier work
SMILES,IC50 (PD-1-Ig/PD-L1-His; range classes),also measured
CCCC[C@H]1C(=O)N[C@@H](CCC(=O)O)C(=O)N[C@H](C(=O)NCC(N)=O)CSCC(=O)N[C@@H](Cc2ccc(O)cc2)C(=O)N(C)[C@@H](C)C(=O)N[C@@H](CC(=O)O)C(=O)N2CCC[C@H]2C(=O)N[C@@H](Cc2cnc[nH]2)C(=O)N[C@@H](CCC(N)=O)C(=O)N2C[C@H](O)C[C@H]2C(=O)N[C@@H](Cc2c[nH]c3ccccc23)C(=O)N[C@@H](CO)C(=O)N[C@@H](Cc2cccc3ccccc23)c2nnnn2[C@@H](CCCC)C(=O)N1C [Example 1104],10 to 99 nM,
CCCC[C@H]1C(=O)N(C)[C@@H](CCCC)C(=O)N[C@@H](C)C(=O)N[C@H](C(=O)NCC(N)=O)CSCC(=O)N[C@@H](Cc2ccc(O)cc2)c2nnnn2[C@@H](C)C(=O)N[C@@H](CC(=O)O)C(=O)N2CCC[C@H]2C(=O)N[C@@H](Cc2c[nH]cn2)C(=O)N[C@@H](CCC(N)=O)C(=O)N2C[C@H](O)C[C@H]2C(=O)N[C@@H](Cc2c[nH]c3ccccc23)C(=O)N[C@@H](CO)C(=O)N[C@@H](Cc2csc3ccccc23)C(=O)N1C [Example 1105] ({CH2CO}-[Tyrψ(CN4)Ala]DPHQ[Hyp]WS[Bta][NMeNle][NMeNle]ACG-NH2; thioether N-13),100 to 10000 nM,
CCCC[C@H]1C(=O)N(C)[C@@H](CCCC)C(=O)N[C@@H](CCC(=O)O)C(=O)N[C@H](C(=O)NCC(N)=O)CSCC(=O)N[C@@H](Cc2ccc(O)cc2)c2nnnn2[C@@H](C)C(=O)N[C@@H](CC(=O)O)C(=O)N2CCC[C@H]2C(=O)N[C@@H](Cc2c[nH]cn2)C(=O)N[C@@H](CCC(N)=O)C(=O)N2C[C@H](O)C[C@H]2C(=O)N[C@@H](Cc2c[nH]c3ccccc23)C(=O)N[C@@H](CO)C(=O)N[C@@H](Cc2csc3ccccc23)C(=O)N1C [Example 1106] ({CH2CO}-[Tyrψ(CN4)Ala]DPHQ[Hyp]WS[Bta][NMeNle][NMeNle]ECG-NH2; thioether N-13),100 to 10000 nM,
CCCC[C@H]1C(=O)N[C@@H](CN)C(=O)N[C@H](C(=O)NCC(N)=O)CSCC(=O)N[C@@H](Cc2ccc(O)cc2)C(=O)N(C)[C@@H](C)C(=O)N[C@@H](CC(=O)O)C(=O)N2CCC[C@H]2C(=O)N[C@@H](Cc2cnc[nH]2)C(=O)N[C@@H](CCC(N)=O)C(=O)N2C[C@H](O)C[C@H]2C(=O)N[C@@H](Cc2c[nH]c3ccccc23)C(=O)N[C@@H](CO)C(=O)N[C@@H](Cc2cccc3ccccc23)c2nnnn2[C@@H](CCCC)C(=O)N1C [Example 1107],100 to 10000 nM,
CCCC[C@H]1C(=O)N[C@@H](CN)C(=O)N[C@H](C(=O)NCC(N)=O)CSCC(=O)N[C@@H](Cc2ccc(O)cc2)C(=O)N(C)[C@@H](C)C(=O)N[C@@H](CC(=O)O)C(=O)N2CCC[C@H]2C(=O)N[C@@H](Cc2c[nH]cn2)C(=O)N[C@@H](CCC(=O)O)C(=O)N2C[C@H](O)C[C@H]2C(=O)N[C@@H](Cc2c[nH]c3ccccc23)C(=O)N[C@@H](CO)C(=O)N[C@@H](Cc2cccc3ccccc23)c2nnnn2[C@@H](CCCC)C(=O)N1C [Example 1108],100 to 10000 nM,
CCCC[C@H]1C(=O)N[C@@H](CN)C(=O)N[C@H](C(=O)NCC(N)=O)CSCC(=O)N[C@@H](Cc2ccc(O)cc2)C(=O)N(C)[C@@H](C)C(=O)N[C@@H](CC(=O)O)C(=O)N2CCC[C@H]2C(=O)N[C@@H](CN)C(=O)N[C@@H](CCC(=O)O)C(=O)N2C[C@H](O)C[C@H]2C(=O)N[C@@H](Cc2c[nH]c3ccccc23)C(=O)N[C@@H](CO)C(=O)N[C@@H](Cc2cccc3ccccc23)c2nnnn2[C@@H](CCCC)C(=O)N1C [Example 1109],10 to 99 nM,
CCCC[C@H]1C(=O)N(C)[C@@H](CCCC)C(=O)N[C@@H](C)C(=O)N[C@H](C(=O)NCC(=O)O)CSCC(=O)N[C@@H](Cc2ccc(O)cc2)c2nnnn2[C@@H](C)C(=O)N[C@@H](CC(=O)O)C(=O)N2CCC[C@H]2C(=O)N[C@@H](Cc2c[nH]cn2)C(=O)N[C@@H](CCC(N)=O)C(=O)N2C[C@H](O)C[C@H]2C(=O)N[C@@H](Cc2c[nH]c3ccccc23)C(=O)N[C@@H](CO)C(=O)N[C@@H](Cc2csc3ccccc23)C(=O)N1C [Example 1110] ({CH2CO}-[Tyrψ(CN4)Ala]DPHQ[Hyp]WS[Bta][NMeNle][NMeNle]ACG-OH; thioether N-13),100 to 10000 nM,
CCCC[C@H]1C(=O)N[C@@H](CN)C(=O)N[C@H](C(=O)NCC(N)=O)CSCC(=O)N[C@@H](Cc2ccc(O)cc2)C(=O)N[C@H](C)C(=O)N[C@@H](CC(=O)O)C(=O)N2CCC[C@H]2C(=O)N[C@@H](Cc2cnc[nH]2)C(=O)N[C@@H](CCC(N)=O)C(=O)N2C[C@H](O)C[C@H]2C(=O)N[C@@H](Cc2c[nH]c3ccccc23)C(=O)N[C@@H](CO)C(=O)N[C@@H](Cc2cccc3ccccc23)c2nnnn2[C@@H](CCCC)C(=O)N1C [Example 1111],,IC50 (PD-1-Ig/PD-L1-His; numeric values): 2160 nM
CCCC[C@H]1C(=O)N[C@@H](C)C(=O)N[C@H](C(=O)NCC(N)=O)CSCC(=O)N[C@@H](Cc2ccc(O)cc2)C(=O)N[C@H](C)C(=O)N[C@@H](CC(=O)O)C(=O)N2CCC[C@H]2C(=O)N[C@@H](Cc2cnc[nH]2)C(=O)N[C@@H](CCC(N)=O)C(=O)N2C[C@H](O)C[C@H]2C(=O)N[C@@H](Cc2c[nH]c3ccccc23)C(=O)N[C@@H](CO)C(=O)N[C@@H](Cc2cccc3ccccc23)c2nnnn2[C@@H](CCCC)C(=O)N1C [Example 1113],100 to 10000 nM,
CCCC[C@H]1C(=O)N(C)CC(=O)N[C@@H](CC(=O)O)C(=O)N[C@@H](C(C)C)C(=O)N(C)[C@@H](Cc2ccccc2)C(=O)NC2(CCCCC2)c2nnnn2CC(=O)N[C@@H](Cc2c[nH]c3ccccc23)C(=O)N[C@@H](Cc2ccc(O)cc2)C(=O)N[C@@H](CC(C)C)C(=O)N[C@H](C(=O)NCC(N)=O)CSCC(=O)N[C@@H](Cc2ccccc2)C(=O)N(C)[C@@H](Cc2ccccc2)C(=O)N1C [Example 3003] ({CH2CO}-F[NMeF][NMeNle][Sar]DV[NMeF][X2]WYLCG-NH2; thioether N-12),,IC50 (PD-1-Ig/PD-L1-His; numeric values): 590 nM
CCCC1O[C@@H]2C[C@H]3[C@@H]4CCC5=CC(=O)C=C[C@]5(C)[C@H]4[C@@H](O)C[C@]3(C)[C@]2(C(=O)CO)O1 (some centres unmarked) [budesonide],,bioavailability [1]: about 10%
